Here are results for 59 molecules from publication PMC12040169 (PLOS Biology, 2025).

The series can be described thus: in vitro. The following applies: human, hela cells, % viability.

On to `C=CCn1c(Cc2csc(NC(=O)Cc3cc(OC)c(OC)c(OC)c3)n2)n[nH]c1=S` [CBK295311], for which the viability (usually a read-out of living cells in per cent, often relative to untreated cells) at 28.5 h, 10 µM worked out at 87.1%.

As to `CCOC(=O)CN1CCN(c2cc(C#N)ccn2)CC1` [CBK306006], the viability at 28.5 h, 10 µM stood at 89.3%.

Take `COc1ccc2[nH]c3c(c2c1)CCOC31CCN(CCC(F)=C(F)F)CC1` [CBK040118]: the viability at 28.5 h, 10 µM came to 103%.

Turning to `COCC(=O)N(C)C(CO)c1cc(OC)ccc1Br` (centres unmarked) [CBK304780], the viability at 28.5 h, 10 µM turned out to be 88.7%.

In the case of `Cc1cc(N2CCOCC2)nc(N)n1` [CBK012710], the viability at 28.5 h, 10 µM came to 99.1%.

`CC1(C)Cc2c(ccc3ccccc23)C(NC(Cc2c[nH]c3ccccc23)C(=O)O)=N1` (centres unmarked) [CBK262569]: the viability at 28.5 h, 10 µM came out at 89.4%.

`CCn1cc(C(=O)NC2(c3cccc(OC)c3)CCCC2)cn1` [CBK283750]: the viability at 28.5 h, 10 µM was found to be 101%.

As to `CC(=O)Nc1ccc(/C=N/NC(=O)CN2CCCCCCC2)cc1` [CBK261617], the viability at 28.5 h, 10 µM was found to be 88.8%.

As to `CC(C)CN1C(=O)c2ccc(C(=O)NCc3ccc(C(=O)O)cc3)cc2C1=O` [CBK286898], the viability at 28.5 h, 10 µM was 116%.

Consider `Cc1ccc2cc3c(nc2c1)OCC(=O)N(Cc1ccco1)C3` [CBK283539], for which the viability at 28.5 h, 10 µM came out at 92.9%.

On to `N#CCCN(C(=O)NC1CCc2ccccc21)C1CCCCC1` (centres unmarked) [CBK156383], for which the viability at 28.5 h, 10 µM came to 95.5%.

As to `O=C(COc1ccccc1)N1CCC(c2cc3cnccc3[nH]2)CC1` [CBK283449], the viability at 28.5 h, 10 µM turned out to be 97.6%.

As for `COC(=O)c1ccsc1NS(=O)(=O)c1ccc(NC(C)=O)cc1` [CBK039063], the viability at 28.5 h, 10 µM worked out at 87.7%.

For `COc1cc(-c2ccc(NCCn3cc[nH]c3=O)nc2)cc(OC)c1OC` [CBK036907], the viability at 28.5 h, 10 µM came to 106%.

Turning to `CC(O)CNc1nccnc1-c1ccccc1` (centres unmarked) [CBK089257], the viability at 28.5 h, 10 µM stood at 95.7%.

For the molecule `COc1ccc2[nH]c(=O)c(CN(CCCN3CCOCC3)C(=O)Nc3cccc(Cl)c3)cc2c1` [CBK135402], the viability at 28.5 h, 10 µM was 96.8%.

With `COC(C)(C(=O)Nc1ccc(Cl)nc1)c1cccc2ccccc12` (centres unmarked) [CBK091350], the viability at 28.5 h, 10 µM was 102%.

Consider `COc1ccc(CCN2CCCCC2Cn2cncn2)cc1` (centres unmarked) [CBK305095], for which the viability at 28.5 h, 10 µM is 108%.

For the molecule `O=C(CSc1nnc(-c2cc(Br)ccc2O)[nH]1)NCCc1ccccc1` [CBK269007], the viability at 28.5 h, 10 µM amounted to 85.8%.

Turning to `O=C(Cc1ccc(Cl)c(Cl)c1)NCCc1c[nH]c2ccc(Cl)cc12` [CBK159749], the viability at 28.5 h, 10 µM was 100%.

Regarding `O=C(Nc1cccc(Cl)c1)Nc1ccc(C(=O)O)c(O)c1` [CBK269518], the viability at 28.5 h, 10 µM came to 94.2%.

With `Cc1nc(C2CC(O)C2)cc(N(C)CCOc2cccc(Cl)c2)n1` (centres unmarked) [CBK307691], the viability at 28.5 h, 10 µM was determined as 94.6%.

Consider `O=C(Nc1ncn(CC(=O)N2CCCCCC2)n1)c1cccc(F)c1` [CBK304904], for which the viability at 28.5 h, 10 µM is 87.5%.

As for `CC(CCCC(C)(C)O)Nc1cncc(-c2ccccc2CO)n1` (centres unmarked) [CBK065529], the viability at 28.5 h, 10 µM turned out to be 96.3%.

On to `O=C(Nc1ccc(-c2cccc(F)c2)cc1)c1ccccc1Cn1cncn1` [CBK285565], for which the viability at 28.5 h, 10 µM was found to be 95.6%.

`Cc1c(C)n(Cc2ccco2)c2ncnc(NCCCC(=O)O)c12` [CBK307562]: the viability at 28.5 h, 10 µM came to 90.7%.

For `Cc1ccc(S(=O)(=O)Nc2nc(C)c(NC(=O)Nc3ccc(Cl)cc3Cl)s2)cc1` [CBK264982], the viability at 28.5 h, 10 µM was found to be 85.8%.

As to `CC(NCC(O)c1ccco1)c1ccc(C#N)s1` (centres unmarked) [CBK304265], the viability at 28.5 h, 10 µM was found to be 85.9%.

For `COc1cc(CNC(=O)c2ccc3[nH]ccc3c2)cc(OC)c1OC` [CBK149073], the viability at 28.5 h, 10 µM was 91%.

`Cc1cc(N(C)C)cc(C2CCCN(C(=O)C3CCC3)C2)n1` (centres unmarked) [CBK282004]: the viability at 28.5 h, 10 µM amounted to 88.7%.

For the molecule `Cc1cccc(N2CCN(CCCOc3ccc(F)c(F)c3)CC2)n1` [CBK025158C], the viability at 28.5 h, 10 µM was 106%.

For `CN(C)C(=O)c1ccc(-c2ncc(OCc3cccs3)nc2N)cc1` [CBK145187], the viability at 28.5 h, 10 µM was 102%.

With `CCOC(=O)c1[nH]c2ccccc2c1NC(=O)CN1C(=O)CSC1=O` [CBK160163], the viability at 28.5 h, 10 µM came out at 102%.

Regarding `CCOC(=O)CCCNC(=O)N1CCN(c2ccccc2OC)CC1` [CBK155618], the viability at 28.5 h, 10 µM worked out at 95.9%.

For `Cc1ncc(COP(=O)(O)O)c(/C=N/c2ccc3ccccc3c2)c1O` [CBK261460], the viability at 28.5 h, 10 µM was 106%.

Consider `CCc1nc2ccc(C(=O)NCCNC(C)=O)cn2c1N(C)Cc1ccc(NC(C)=O)cc1` [CBK145612], for which the viability at 28.5 h, 10 µM came out at 87.4%.

In the case of `N/C(=N\OC(=O)c1cc(-c2ccccc2)nc2ccccc12)c1cccnc1` [CBK265106], the viability at 28.5 h, 10 µM was 101%.

As to `CC(C)NC(=O)CCNc1ncc(C(N)=O)cc1Cl` [CBK306373], the viability at 28.5 h, 10 µM is 92.9%.

Consider `CCN(Cc1ccncc1)C(=O)NCc1cccnc1` [CBK145054], for which the viability at 28.5 h, 10 µM came out at 94.6%.

As for `Cc1ccc(OCC(=O)NC(Cc2ccccc2)C(=O)O)cc1` (centres unmarked) [CBK217681], the viability at 28.5 h, 10 µM turned out to be 102%.

Turning to `CC(C)(C)C(=O)N1CCC(C(=O)NC(c2ccc3c(c2)OCO3)c2ccccn2)CC1` (centres unmarked) [CBK060074], the viability at 28.5 h, 10 µM came to 110%.

Regarding `CC(C)c1ccc(CNC(=O)c2ccc(-c3ccoc3)nc2)cc1` [CBK156292], the viability at 28.5 h, 10 µM stood at 91.4%.

As for `Cc1ccccc1-c1nnc(SC(C)C)n1CCNCCO` [CBK200084T], the viability at 28.5 h, 10 µM was 86.9%.

`CCCNC(=O)COc1ccc(CC)cc1` [CBK058199]: the viability at 28.5 h, 10 µM was found to be 93.9%.

As to `Cc1n[nH]c(=O)c2noc(C)c12` [CBK000857], the viability at 28.5 h, 10 µM turned out to be 108%.

Take `Cc1ccc(-c2nn(CCC#N)cc2C(=O)N2CCCC2)cc1C` [CBK305974]: the viability at 28.5 h, 10 µM came out at 86.8%.

For the molecule `CCN(CCC(C)c1ccccc1)CCN(C)C` (centres unmarked) [CBK261914], the viability at 28.5 h, 10 µM came to 94.6%.

For the molecule `O=C(CN1C(=O)c2ccccc2C1=O)NCC1COc2ccccc2O1` (centres unmarked) [CBK222526], the viability at 28.5 h, 10 µM came out at 96.8%.

Regarding `COc1ccc(CNc2nc[nH]n2)c(OC)c1OC` [CBK288129], the viability at 28.5 h, 10 µM came to 103%.

In the case of `CC1(C)CN(Cc2cccc(-c3ccccn3)c2)CCS1(=O)=O` [CBK304284], the viability at 28.5 h, 10 µM amounted to 99.8%.

For `CN(CC(=O)Nc1cncc(OC2CCNCC2)n1)C(=O)c1ccccc1` [CBK028440T], the viability at 28.5 h, 10 µM came to 105%.

On to `Cn1cc(CN2CCCC(c3cc4ccccc4cn3)C2)cn1` (centres unmarked) [CBK285042], for which the viability at 28.5 h, 10 µM was found to be 101%.

As to `CC(C)NC(=O)Cn1ccc2ccnc(-c3cccs3)c21` [CBK284732], the viability at 28.5 h, 10 µM worked out at 91.3%.

In the case of `COC(=O)c1c(NC(=S)NCc2ccc(S(N)(=O)=O)cc2)sc2c1CCC2` [CBK266926], the viability at 28.5 h, 10 µM is 88.5%.

For `C=CCO[C@@H]1C[C@H]2C(=O)N3CC[C@H](NC(=O)[C@@H](O)c4ccccc4)C[C@H]3C(=O)N2C1` [CBK289556], the viability at 28.5 h, 10 µM was 89.6%.

Turning to `O=C(O)C1CCN(c2c(-c3ccccc3)c3cc(Cl)ccc3[nH]c2=O)CC1` [CBK287198], the viability at 28.5 h, 10 µM worked out at 87.3%.

Turning to `O=c1[nH]nc(SCCCOc2ccc(Cl)cc2)n1C1CC1` [CBK295597], the viability at 28.5 h, 10 µM came out at 115%.

In the case of `CCC(CCO)CNc1ncnc2ccc(S(C)(=O)=O)cc12` (centres unmarked) [CBK305157], the viability at 28.5 h, 10 µM was determined as 84%.

For `CCn1cc(C(=O)O)c(=O)c2cc(F)c(N3CCN(S(=O)(=O)c4ccc(C)cc4)CC3)cc21` [CBK265122], the viability at 28.5 h, 10 µM worked out at 95.1%.
